Among the data in patent US9682995B2, “Amino-substituted isothiazoles” (BAYER PHARMA AKTIENGESELLSCHAFT, priority 2013, dated 2017) are IC50 values, retold here.

The structures appear in SMILES notation.

The test system of assay [1] is spindle assembly checkpoint. The assay can be described thus: SAC-Formation - Paclitaxel-Induced Assay. The format is cell-based. The conditions noted are these: Homo sapiens; HeLa cells, paclitaxel 0.05 μM, 24 h, phosphorylated histone H3 on serine 10. From the text: The spindle assembly checkpoint assures the proper segregation of chromosomes during mitosis. Upon entry into mitosis, chromosomes begin to condensate which is accompanied by the phosphorylation of histone H3 on serine 10. Dephosphorylation of histone H3 on serine 10 begins in anaphase and ends at early telophase. Accordingly, phosphorylation of histone H3 on serine 10 can be utilized as a marker of cells in mitosis. Nocodazole is a microtubule destabilizing substance. Paclitaxel is a microtubule stabilizing compound. Thus, nocodazole as well as paclitaxel interfere with microtubule dynamics and mobilize the spindle assembly checkpoint. […] The mitotic breakthrough can be detected by the decrease of cells with phosphorylation of histone H3 on serine 10. This decline is used as a marker to determine the capability of compounds of the present invention to induce a mitotic breakthrough. The typical morphological alteration of nuclei with a prematurely completed mitosis after SAC-inhibition can be monitored via image analysis routines supporting those findings.
The nocodazole and paclitaxel variations were used to focus on compounds that are capable of inhibiting a SAC induced by both microtubule destabilization as well as microtubule stabilization. When SAC inducing agents and compounds are given simultaneously, inhibitors that effectively block the SAC during formation or abrogation are identified. When cells are incubated with a SAC inducing agent and the SAC interfering compound is given after a defined time, inhibitors are identified that effectively block SAC abrogation.
Cultivated cells of the human cervical tumor cell line HeLa (ATCC CCL-2) were plated at a density of 1000 cells/well in a 1536-well microtiter plate in 2 μl PAA Ham's F12 Medium supplemented with 1% (v/v) glutamine, 1% (v/v) penicillin, 1% (v/v) streptomycin and 10% (v/v) fetal calf serum. After incubation overnight at 37° C., 10 μl/well paclitaxel at a final concentration of 0.05 μM were added to cells. Test compounds solubilized in dimethyl sulfoxide (DMSO) were added at various concentrations (0 μM, as well as in the range of 0.005 μM-20 μM; the final concentration of the solvent DMSO was 0.5% (v/v)). Cells were incubated for 24 h at 37° C. in the presence of test compounds in combination with paclitaxel. Thereafter, cells were fixed in 4% (v/v) paraformaldehyde in phosphate buffered saline (PBS) at 4° C. overnight then permeabilized in 0.1% (v/v) Triton X™ 100 in PBS at room temperature for 20 min and blocked in 0.5% (v/v) bovine serum albumin (BSA) in PBS at room temperature for 15 min. After washing with PBS, 5 μl/well antibody solution (anti-phospho-histone H3 clone 3H10, FITC; Millipore, Cat #16-222; 1:1000 dilution) was added to cells, which were incubated for 2 h at room temperature. Afterwards, cells were washed with PBS and 5 μl/well solution of HOECHST 33342 dye (5 μg/ml) was added to cells and cells were incubated 15 min at room temperature in the dark. Cells were washed twice with PBS then covered with PBS and stored at 4° C. until analysis. Images were acquired with a PERKIN ELMER OPERA™ High-Content Analysis reader. Images were analyzed with image analysis software MetaXpress™ from Molecular devices utilizing the Mitotic Index application module. In this assay both labels HOECHST 33342 and phosphorylated Histone H3 on serine 10 were measured. HOECHST 33342 labels the DNA and is used to count the cell number. The staining of phosphorylated Histone H3 on serine 10 determines the number of mitotic cells. […] Otherwise cells were arrested at G2/M phase of the cell cycle progression. The raw assay data were further analyzed by four-parametric hill equation using Genedata's Assay Analyzer and Condoseo software.

Assay [2] addresses CDK2/CycE (Homo sapiens (Human), UniProt P24941). The assay can be described thus: CDK2/CycE kinase assay (TR-FRET). The conditions noted are these: 10 μM ATP; read-out: CDK2 avg (IC50 [mol/l]). Type of assay: biochemical. From the text:
CDK2/CycE-inhibitory activity of compounds of the present invention was quantified employing the CDK2/CycE TR-FRET assay as described in the following paragraphs.
Recombinant fusion proteins of GST and human CDK2 and of GST and human CycE, expressed in insect cells (Sf9) and purified by Glutathion-Sepharose affinity chromatography, were purchased from ProQinase GmbH (Freiburg, Germany). As substrate for the kinase reaction biotinylated peptide biotin-Ttds-YISPLKSPYKISEG (C-terminus in amid form) was used which can be purchased e.g. form the company JERINI peptide technologies (Berlin, Germany).
For the assay 50 nl of a 100 fold concentrated solution of the test compound in DMSO was pipetted into a black low volume 384 well microtiter plate (Greiner Bio-One, Frickenhausen, Germany), 2 μl of a solution of CDK2/CycE in aqueous assay buffer [50 mM Tris/HCl pH 8.0, 10 mM MgCl2, 1.0 mM dithiothreitol, 0.1 mM sodium ortho-vanadate, 0.01% (v/v) Nonidet-P40 (Sigma)] were added and the mixture was incubated for 15 min at 22° C. to allow pre-binding of the test compounds to the enzyme before the start of the kinase reaction. Then the kinase reaction was started by the addition of 3 μl of a solution of adenosine-tri-phosphate (ATP, 16.7 μM=>final conc. in the 5 μl assay volume is 10 μM) and substrate (1.25 μM=>final conc. in the 5 μl assay volume is 0.75 μM) in assay buffer and the resulting mixture was incubated for a reaction time of 25 min at 22° C. The concentration of CDK2/CycE was adjusted depending of the activity of the enzyme lot and was chosen appropriate to have the assay in the linear range, typical concentrations were in the range of 130 ng/ml. The reaction was stopped by the addition of 5 μl of a solution of TR-FRET detection reagents (0.2 μM streptavidine-XL665 [Cisbio Bioassays, Codolet, France] and 1 nM anti-RB(pSer807/pSer811)-antibody from BD Pharmingen [#558389] and 1.2 nM LANCE EU-W1024 labeled anti-mouse IgG antibody [Perkin-Elmer, product no. AD0077, as an alternative a Terbium-cryptate-labeled anti-mouse IgG antibody from Cisbio Bioassays can be used]) in an aqueous EDTA-solution (100 mM EDTA, 0.2% (w/v) bovine serum albumin in 100 mM HEPES/NaOH pH 7.0).
The resulting mixture was incubated 1 h at 22° C. to allow the formation of complex between the phosphorylated biotinylated peptide and the detection reagents. Subsequently the amount of phosphorylated substrate was evaluated by measurement of the resonance energy transfer from the Eu-chelate to the streptavidine-XL. Therefore, the fluorescence emissions at 620 nm and 665 nm after excitation at 350 nm was measured in a TR-FRET reader, e.g. a Rubystar (BMG Labtechnologies, Offenburg, Germany) or a Viewlux (Perkin-Elmer). The ratio of the emissions at 665 nm and at […] was taken as the measure for the amount of phosphorylated substrate. The data were normalised (enzyme reaction without inhibitor=0% inhibition, all other assay components but no enzyme=100% inhibition).
(In TR-FRET formats the signal depends on donor and acceptor labels being close together.)

With `CCc1ccccc1NC(=O)c1c(C)nsc1Nc1cnccn1` [Example 1, N-(2-Ethylphenyl)-3-methyl-5-(pyrazin-2-ylamino)-1,2-thiazole-4-carboxamide], the figures for the IC50 in assay [1] and in assay [2] were 4.9 µM and over 20 µM, respectively.

As to `CCc1ccccc1NC(=O)c1c(C)nsc1Nc1ccnc(C#N)n1` [Example 6, 5-[(2-Cyanopyrimidin-4-yl)amino]-N-(2-ethylphenyl)-3-methyl-1,2-thiazole-4-carboxamide], the IC50 is 1.2 µM in assay [1] and over 20 µM in assay [2].

Turning to `CCc1ccccc1NC(=O)c1c(C)nsc1Nc1ccc(C#N)cn1` [Example 7, 5-[(5-Cyanopyridin-2-yl)amino]-N-(2-ethylphenyl)-3-methyl-1,2-thiazole-4-carboxamide], the IC50 in assay [1] is 2.5 µM; in assay [2], over 20 µM.

On to `CCc1ccccc1NC(=O)c1c(C)nsc1Nc1ncccc1C#N` [Example 8, 5-[(3-Cyanopyridin-2-yl)amino]-N-(2-ethylphenyl)-3-methyl-1,2-thiazole-4-carboxamide], for which the figures for the IC50 in assay [1] and in assay [2] were 18 µM and over 20 µM, respectively.

With `CCc1ccccc1NC(=O)c1c(C)nsc1Nc1cc(-n2ccnc2)ncn1` [Example 9, N-(2-Ethylphenyl)-5-{[6-(1H-imidazol-1-yl)pyrimidin-4-yl]amino}-3-methyl-1,2-thiazole-4-carboxamide], the IC50 in assay [1] is 3 µM; in assay [2], over 20 µM.

As for `CCc1ccccc1NC(=O)c1c(C)nsc1Nc1ncnc2ccccc12` [Example 10, N-(2-Ethylphenyl)-3-methyl-5-(quinazolin-4-ylamino)-1,2-thiazole-4-carboxamide], the IC50 in assay [1] is 11 µM; in assay [2], over 20 µM.

Turning to `CCc1ccccc1NC(=O)c1c(C)nsc1Nc1nc2ccccc2o1` [Example 11, 5-(1,3-Benzoxazol-2-ylamino)-N-(2-ethylphenyl)-3-methyl-1,2-thiazole-4-carboxamide], the values for the IC50 in assay [1] and in assay [2] were 2.9 µM and over 20 µM, respectively.

Regarding `CCc1ccccc1NC(=O)c1c(C)nsc1Nc1ncnc2sccc12` [Example 12, N-(2-Ethylphenyl)-3-methyl-5-(thieno[2,3-d]pyrimidin-4-ylamino)-1,2-thiazole-4-carboxamide], the values for the IC50 in assay [1] and in assay [2] were 6.9 µM and over 20 µM, respectively.

On to `CCc1ccccc1NC(=O)c1c(C)nsc1Nc1ncnc2ccsc12` [Example 13, N-(2-Ethylphenyl)-3-methyl-5-(thieno[3,2-d]pyrimidin-4-ylamino)-1,2-thiazole-4-carboxamide], for which the IC50 is 2.1 µM in assay [1] and over 20 µM in assay [2].

With `CCc1ccccc1NC(=O)c1c(C)nsc1Nc1nc2ccccc2s1` [Example 14, 5-(1,3-Benzothiazol-2-ylamino)-N-(2-ethylphenyl)-3-methyl-1,2-thiazole-4-carboxamide], the IC50 in assay [1] is 0.76 µM; in assay [2] it was over 20 µM.

Consider `CCc1ccccc1NC(=O)c1c(C)nsc1Nc1cc(NC)ncn1` [Example 15, N-(2-Ethylphenyl)-3-methyl-5-{[6-(methylamino)pyrimidin-4-yl]amino}-1,2-thiazole-4-carboxamide], for which the IC50 in assay [1] and in assay [2] was over 20 µM each time.

Consider `CCc1ccccc1NC(=O)c1c(C)nsc1Nc1nccc(OC)n1` [Example 16, N-(2-Ethylphenyl)-5-[(4-methoxypyrimidin-2-yl)amino]-3-methyl-1,2-thiazole-4-carboxamide], for which the IC50 in assay [1] and in assay [2] was over 20 µM in each case.

`CCc1ccnc(Nc2snc(C)c2C(=O)Nc2ccccc2CC)n1` [Example 17, N-(2-Ethylphenyl)-5-[(4-ethylpyrimidin-2-yl)amino]-3-methyl-1,2-thiazole-4-carboxamide]: the IC50 was 19 µM in assay [1] and over 20 µM in assay [2].

As for `CCc1ccccc1NC(=O)c1c(C)nsc1Nc1cc(C(F)(F)F)ccn1` [Example 18, N-(2-Ethylphenyl)-3-methyl-5-{[4-(trifluoromethyl)pyridin-2-yl]amino}-1,2-thiazole-4-carboxamide], the IC50 in assay [1] is 2 µM; in assay [2], over 20 µM.

As for `CCc1ccccc1NC(=O)c1c(C)nsc1Nc1cnc2ccccc2n1` [Example 19, N-(2-Ethylphenyl)-3-methyl-5-(quinoxalin-2-ylamino)-1,2-thiazole-4-carboxamide], the IC50 is 0.14 µM in assay [1] and over 20 µM in assay [2].

For the compound `CCc1ccccc1NC(=O)c1c(C)nsc1Nc1cnc2cc(F)ccc2n1` [Example 20, N-(2-Ethylphenyl)-5-[(6-fluoroquinoxalin-2-yl)amino]-3-methyl-1,2-thiazole-4-carboxamide], the IC50 in assay [1] is 0.4 µM; in assay [2] it was over 20 µM.

`CCc1ccccc1NC(=O)c1c(C)nsc1Nc1nc2ccccc2nc1C` [Example 21, N-(2-Ethylphenyl)-3-methyl-5-[(3-methylquinoxalin-2-yl)amino]-1,2-thiazole-4-carboxamide]: the IC50 is 3.6 µM in assay [1] and over 20 µM in assay [2].

As for `COc1ccc(NC(=O)c2c(C)nsc2Nc2cnc3cccc(C)c3n2)cn1` [Example 22, N-(6-methoxypyridin-3-yl)-3-methyl-5-[(8-methylquinoxalin-2-yl)amino]-1,2-thiazole-4-carboxamide], the results for the IC50 in assay [1] and in assay [2] were 0.26 µM and over 20 µM, respectively.

As for `COc1ccc(NC(=O)c2c(C)nsc2Nc2cnc3cc(Cl)ccc3n2)cn1` [Example 23, 5-[(6-Chloroquinoxalin-2-yl)amino]-N-(6-methoxypyridin-3-yl)-3-methyl-1,2-thiazole-4-carboxamide], the IC50 was 0.5 µM in assay [1] and over 20 µM in assay [2].
